Consider 32 compounds from ChEMBL document CHEMBL5365404, “Synthesis and biological evaluation of 2-(Tetrazol-5-yl)sulfonylacetamides as inhibitors of Mycobacterium tuberculosis and Mycobacterium marinum” (Bioorg Med Chem Lett, 2023).

Converted amounts (≈) assume the structure as drawn.

Data set [1] relates to Mycobacterium tuberculosis. As to the kind of experiment: Antitubercular activity against Mycobacterium tuberculosis assessed as reduction in microbial growth by broth dilution method. It is filed as functional. For orientation: In broth dilution the organism is exposed to a series of concentrations in liquid medium.
Data set [2] relates to Mycobacterium marinum. The data set is described as follows: Antitubercular activity against Mycobacterium marinum assessed as reduction in microbial growth by broth dilution method. The data set is classed as functional.
Data set [3] in a line: Lipophilicity, log D of the compound at pH 7.4. It is filed as physicochemical. The following applies: buffer.
Data set [4] can be described thus: Solubility of the compound at pH 2.0. The data set is classed as physicochemical. The following applies: buffer.
Data set [5] is described as follows: Solubility of the compound at pH 6.5. To be noted: buffer. The data set is classed as physicochemical.
Data set [6] in a line: Half life in mouse liver microsomes. It is filed as ADME, Microsome. A general note: Liver microsomes are vesicles of endoplasmic reticulum, rich in cytochrome P450 enzymes.
Data set [7] in a line: Intrinsic clearance in mouse liver microsomes. It is filed as ADME, Microsome. The following applies: read-out: CLH.

With `CCN(CC)C(=O)CS(=O)(=O)c1nnnn1-c1ccccc1`, the MIC90 is 20 µg/mL in data set [1] and > 100 µg/mL in data set [2].
The like results for `CCC1CCCCN1C(=O)CS(=O)(=O)c1nnnn1C` (centres undefined) were, in that order, 2.5 µg/mL and 100 µg/mL.
Consider `CN(C(=O)CSc1nnnn1-c1ccccc1)c1ccccc1`, for which the MIC90 in data set [1] and in data set [2] was > 100 µg/mL in each case.
In the case of `CC1CCN(C(=O)CS(=O)(=O)c2nnnn2-c2ccccc2)CC1`, the MIC90 amounted to 12.5 µg/mL in data set [1] and 100 µg/mL in data set [2].
The like results for `O=C(CS(=O)(=O)c1nnnn1-c1ccccc1)NC1CCCCC1` were, in that order, 100 µg/mL and 100 µg/mL.
The like results for `CC1CCN(C(=O)CSc2nnnn2-c2ccccc2)CC1` were, in that order, > 50 µg/mL and > 100 µg/mL.
For `O=C(CS(=O)(=O)c1nnc2ncccn12)N1CCN(c2ccccc2)CC1` the same measures were > 100 µg/mL and > 100 µg/mL.
Consider `CC1CCN(C(=O)CS(=O)(=O)c2nc(-c3ccc(Cl)cc3)n[nH]2)CC1`, for which the MIC90 in data set [1] and in data set [2] was > 100 µg/mL in each case.
`COc1cccc(-c2n[nH]c(S(=O)(=O)CC(=O)N3CCC(C)CC3)n2)c1`: the MIC90 in data set [1] and in data set [2] was > 100 µg/mL each time.
Take `Cn1nnnc1S(=O)(=O)CC(=O)N1CCN(c2ccccc2)CC1`: the MIC90 in data set [1] is 1.25 µg/mL; in data set [2], 10 µg/mL. This compound also had a logD in data set [3] of 4.8. Further, the solubility worked out at 50 mg/mL (≈ 143 mM) in data set [4] and 25 mg/mL (≈ 71.3 mM) in data set [5]. This compound also had a half-life in data set [6] of 0.333 h. For the same compound, the microsomal CLint in data set [7] was 85 µL/min/mg.
For the compound `Cn1nnnc1S(=O)(=O)CC(=O)N1CCCC1`, the MIC90 in data set [1] was found to be 6.25 µg/mL; in data set [2], 12.5 µg/mL.
For `CN(C(=O)CS(=O)(=O)c1nnnn1C)c1ccccc1` the same measures were 2.5 µg/mL and 100 µg/mL.
On to `Cn1nnnc1S(=O)(=O)CC(=O)N1CCCCC1`, for which the figures for the MIC90 in data set [1] and in data set [2] were 1.56 µg/mL and 12.5 µg/mL, respectively. For the same compound, the log distribution coefficient (logD) in data set [3] was 1.6. In addition, the solubility in data set [4] and in data set [5] was > 100 mg/mL throughout. Moreover, in data set [6], the half-life was 2.93 h. For the same compound, the microsomal CLint in data set [7] came to 10 µL/min/mg.
Consider `Cn1nnnc1S(=O)(=O)CC(=O)NC1CCCCC1`, for which the MIC90 was found to be 6.25 µg/mL in data set [1] and 12.5 µg/mL in data set [2].
For `O=C(CSc1nnnn1-c1ccccc1)N1CCCC1` the same measures were 50 µg/mL and 100 µg/mL.
For `CC1CCCN(C(=O)CS(=O)(=O)c2nnnn2C)C1` (centres undefined) the same measures were 6.25 µg/mL and 25 µg/mL.
As for `O=C(CS(=O)(=O)c1nnnn1-c1ccccc1)N1CCCC1`, the MIC90 in data set [1] was 20 µg/mL; in data set [2], > 100 µg/mL.
For `CN(C(=O)C[S+]([O-])c1nnnn1-c1ccccc1)c1ccccc1` (centres undefined) the same measures were 50 µg/mL and 100 µg/mL.
Turning to `Cn1nnnc1S(=O)(=O)CC(=O)N1CCCCCC1`, the MIC90 in data set [1] worked out at 1.25 µg/mL; in data set [2], 100 µg/mL.
The like results for `CO[C@H]1/C=C/O[C@@]2(C)Oc3c(C)c(O)c4c(O)c(c(/C=N/N5CCN(C)CC5)c(O)c4c3C2=O)NC(=O)/C(C)=C\C=C\[C@H](C)[C@H](O)[C@@H](C)[C@@H](O)[C@@H](C)[C@H](OC(C)=O)[C@@H]1C` [RIFAMPIN] were, in that order, 0.06 µg/mL and 0.2 µg/mL.
For `CC1CCN(C(=O)C[S+]([O-])c2nnnn2-c2ccccc2)CC1` (centres undefined) the same measures were 25 µg/mL and 100 µg/mL.
`CN(C(=O)CS(=O)(=O)c1nnnn1-c1ccccc1)c1ccccc1`: the MIC90 came out at 10 µg/mL in data set [1] and 50 µg/mL in data set [2].
The like results for `CC1CCN(C(=O)CS(=O)(=O)c2nnnn2C)CC1` were, in that order, 1.56 µg/mL and 12.5 µg/mL.
Take `Cn1nnnc1SCC(=O)N1CCCC1`: the MIC90 in data set [1] and in data set [2] was > 100 µg/mL in each case.
Consider `CC1CCCCN1C(=O)CS(=O)(=O)c1nnnn1C` (centres undefined), for which the MIC90 was found to be 3.13 µg/mL in data set [1] and 25 µg/mL in data set [2].
The like results for `O=C(CS(=O)(=O)c1nnnn1-c1ccccc1)N1CCCCC1` were, in that order, 10 µg/mL and 100 µg/mL.
As for `O=C(CS(=O)(=O)c1nnc2ncccn12)N1CCCCC1`, the MIC90 in data set [1] and in data set [2] was > 100 µg/mL each time.
On to `CCN(CC)C(=O)CS(=O)(=O)c1nnnn1C`, for which the MIC90 in data set [1] stood at 10 µg/mL; in data set [2], 100 µg/mL.
For the compound `Cn1nnnc1SCC(=O)N1CCCCC1`, the MIC90 in data set [1] and in data set [2] was > 100 µg/mL throughout.
Consider `CN(C(=O)CS(=O)(=O)c1nc(O)nn1C)c1ccccc1`, for which the MIC90 in data set [1] and in data set [2] was > 100 µg/mL each time.
On to `O=C(CS(=O)(=O)c1nnnn1-c1ccccc1)N1CCN(c2ccccc2)CC1`, for which the MIC90 was 10 µg/mL in data set [1] and 100 µg/mL in data set [2].
For `CC1CCCCN1C(=O)CS(=O)(=O)c1nnnn1-c1ccccc1` (centres undefined) the same measures were 12.5 µg/mL and 100 µg/mL.

The MIC90 is an inhibitory concentration at the 90% level, which refers to growth in some studies and to a panel of isolates in others. By logD is commonly meant the decadic logarithm of the distribution of all forms, ionised or not, between an organic phase and buffer at a given pH. The solubility is how much of the substance goes into solution per volume. Higher therefore signals much dissolved substance. For orientation: half-life means the time in which the quantity being followed falls by half. A low value points to fast loss.
